Assay results reported in patent publication EP4471048A1, “PEPTIDE INHIBITORS OF INTERLEUKIN-23 RECEPTOR” (Zealand Pharma A/S, priority 2023, dated 2024).
*1 amine or outer side, *2 acyl side, *3 side chain or, on linkers, in order; H or OH if unused. Where a SMILES comes first, the peptide text is derived from it. Bridges are numbered along the chain shown (N, C = ends). [ ]: non-standard residue; d: D form. X14 = O=C(CC[C@H](N[*:2])C(=O)[*:3])[*:1]; X8 = O=C(CC[C@@H](N[*:2])C(=O)[*:3])[*:1]; 2Nal = N[C@@H](Cc1ccc2ccccc2c1)C(=O)O; AEF = NCCOc1ccc(C[C@H](N)C(=O)O)cc1; 3Pal = N[C@@H](Cc1cccnc1)C(=O)O; Aad = N[C@@H](CCCC(=O)O)C(=O)O; αMeL = CC(C)C[C@](C)(N)C(=O)O; dOrn = NCCC[C@@H](N)C(=O)O; Dab = NCC[C@H](N)C(=O)O

Target: T1, human IL-23R (Homo sapiens, UniProt Q5VWK5)
T1 sequence (Q5VWK5 22-629): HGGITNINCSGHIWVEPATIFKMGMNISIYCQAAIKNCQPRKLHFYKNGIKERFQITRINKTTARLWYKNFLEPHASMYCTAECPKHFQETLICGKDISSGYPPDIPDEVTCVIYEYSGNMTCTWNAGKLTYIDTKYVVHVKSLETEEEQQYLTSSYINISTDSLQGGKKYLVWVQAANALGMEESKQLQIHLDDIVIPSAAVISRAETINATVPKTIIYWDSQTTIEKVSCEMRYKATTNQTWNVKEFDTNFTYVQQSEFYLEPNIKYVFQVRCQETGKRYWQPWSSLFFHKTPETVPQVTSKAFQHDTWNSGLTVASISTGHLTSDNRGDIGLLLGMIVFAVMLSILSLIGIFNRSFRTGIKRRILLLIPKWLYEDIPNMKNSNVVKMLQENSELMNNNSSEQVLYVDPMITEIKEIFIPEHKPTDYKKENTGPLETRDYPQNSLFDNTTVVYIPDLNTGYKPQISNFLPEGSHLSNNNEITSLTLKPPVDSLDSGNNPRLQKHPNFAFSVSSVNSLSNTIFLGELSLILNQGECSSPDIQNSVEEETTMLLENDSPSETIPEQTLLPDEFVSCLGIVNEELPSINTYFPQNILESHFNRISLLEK
Experiment: biochemical
Conditions: for Emax: read-out: % displacement (hIL-23R NIuc)
Description: The compound binding affinity for IL-23R was estimated by the ability of compounds to displace a fluorophore-labelled reference compound from the human IL-23R. The assay principle relies on Bioluminescence Resonance Energy Transfer (BRET) between a fluorophore-labelled reference compound binding to the IL-23R part of a fusion protein consisting of the IL-23R fused to a Nanoluc luciferase enzyme (Nanoluc). The Nanoluc is placed in the N-terminus in close proximity to the binding domain of the ligand. Upon close proximity between the fluorophore of the fluorophore-labelled compound and the Nanoluc of the fusion protein, bioluminescence energy generated from conversion of a Nanoluc substrate, is transferred to the fluorophore resulting in an increase in BRET. In presence of an unlabelled compound, the unlabelled compound displaces the fluorophore-labelled peptide from its binding site resulting in a decrease in BRET. The concentration for which half of the fluorophore-labelled peptide is displaced by the unlabelled compound depends on the affinity of the compound for the IL-23R, and is termed the IC50 concentration.
The plasmid also contained a gene to confer resistance for the antibiotic hygromycin. A cell line stably expressing the Nluc-IL23R fusion protein was generated by transfection of HEK293 cells with the expression plasmid and selected with hygromycin for 3 weeks in Growth medium consisting of DMEM w/ Glutamax-I containing, 10% V/V FBS, 1% V/V P/S, 1 mM Sodium Pyruvate, and 1X NEAA, and 0.3 mg/mL hygromycin. The remaining cells were propagated and considered a stable expressing Nluc-IL23R fusion protein pool clone.
Cells expressing the Nluc-IL23R fusion protein were expanded in Growth medium and membranes prepared by homogenization of a cell pellet from 18 T175 flasks (4 °C in subsequent steps). The cell pellet was lysed Tris 10 mM, 7.5, 1 mM EDTA and protease inhibitors (Complete, Roche) and homogenized using a 15 mL glass-dounce by 50 strokes. The homogenate was spun at spin @1500 rpm for 10 min, the supernatant transferred to SV-34 tubes and spun at 40000g for 20 min at 4 °C to pellet the crude membranes. The supernatant was then removed, the pellet resuspended in 5 mL buffer containing 50 mM HEPES pH 7.4, 5 mM EGTA, and 5 mM MgCl2, and homogenized. Aliquots of the resuspended and homogenized membranes containing the Nluc-IL23R fusion protein were stored at -80 °C until use.
The plate was sealed with light impermeable plate seals, and incubated on an orbital shaker 400 rpm for 2 hours at room temperature. To determine the BRET ratio, the plate seal was removed and 25 µL of the Nanoluc substrate (Promega N1572) diluted 1:500 was added to each well and incubated for 1-2 minutes on an orbital shaker at 400 rpm. […] The BRET ratio was calculated as the fluorescence from the TAMRA/nanoluc bioluminescence.
Compound potency (IC50) and maximal displacement (% displacement) were estimated by computer-aided curve fitting using a 4-parameter logistic (4PL) non-linear model. […]
In this application, the inventors provide the data as IC50 values.

SMILES | IC50 [nM] | Emax [%] | % displacement (hIL-23R NIuc) [%]
CNC(=O)[C@H](Cc1cccnc1)NC(=O)[C@H](CCN)NC(=O)[C@@H]1CCC(=O)NCCCC[C@H]2CC(=O)N[C@@H](Cc3c[nH]c4ccccc34)C(=O)N[C@@H](CCC(N)=O)C(=O)N[C@@H](CCC(=O)N2)C(=O)N[C@@H](Cc2ccc(OCCN)cc2)C(=O)N[C@@H](Cc2ccc3ccccc3c2)C(=O)N[C@@](C)(CC(C)C)C(=O)N1 [Compound 101, [beta-hLys](1c)(6c)^†WQE(6c)[Y(2-aminoethoxy)][2-Nal][2-Me-Leu]E(1c)[Dab][3-(3-Pyridyl)-Ala]-[NHMe]] | 30 | 103 | –
COc1ccc(C[C@@H]2NC(=O)[C@@H]3CCC(=O)N[C@@H](CCCCNC(=O)CC[C@@H](C(=O)N[C@@H](CCCCNC(=O)CCc4ncc[nH]4)C(N)=O)NC(=O)[C@](C)(CC(C)C)NC(=O)[C@H](Cc4ccc5ccccc5c4)NC2=O)C(=O)N[C@@H]([C@@H](C)O)C(=O)N[C@@H](C(C)C)C(=O)N[C@@H](Cc2c[nH]c4ccccc24)C(=O)N[C@@H](CCC(N)=O)C(=O)N3)cc1 [Compound 59, K(1c)(6c)^†TVWQE(6c)[Y(Me)][2-Nal][2-Me-Leu]E(1c)[K(Imidazolepropanoyl)]-[NH2]] | 330 | – | –
CNC(=O)[C@H](Cc1cccnc1)NC(=O)[C@H](CCN)NC(=O)[C@@H]1CCC(=O)NC[C@@H]2NC(=O)CC[C@H](NC(=O)[C@H](CCC(N)=O)NC(=O)[C@H](Cc3c[nH]c4ccccc34)NC2=O)C(=O)N[C@@H](Cc2ccc(OCCN)cc2)C(=O)N[C@@H](Cc2ccc3ccccc3c2)C(=O)N[C@@](C)(CC(C)C)C(=O)N1 [Compound 95, [Dpr](1c)(6c)^†WQE(6c)[Y(2-aminoethoxy)][2-Nal][2-Me-Leu]E(1c)[Dab][3-(3-Pyridyl)-Ala]-[NHMe]] | 17 | 98 | –
CNC(=O)[C@H](Cc1cccnc1)NC(=O)[C@H](CCN)NC(=O)[C@@H]1CCCCNC(=O)[C@@H]2CCC(=O)N[C@@H](Cc3c[nH]c4ccccc34)C(=O)N[C@@H](CCC(N)=O)C(=O)N[C@@H](CCC(=O)N2)C(=O)N[C@@H](Cc2ccc(OCCN)cc2)C(=O)N[C@@H](Cc2ccc3ccccc3c2)C(=O)N[C@@](C)(CC(C)C)C(=O)N1 [Compound 106, [iso-Glu](1c)^‡(6c)^†WQE(6c)[Y(2-aminoethoxy)][2-Nal][2-Me-Leu]K(1c)[Dab][3-(3-Pyridyl)-Ala]-[NHMe]] (WQE[AEF][2Nal][αMeL]K[Dab][3Pal]-NHMe; linker N-3-7 via X14) | 2.5 | – | 99
CC(C)C[C@]1(C)NC(=O)[C@H](Cc2ccc3ccccc3c2)NC(=O)[C@H](Cc2ccc(OCCN)cc2)NC(=O)[C@@H]2CCC(=O)N[C@H](CCCCCNC(=O)CC[C@@H](C(=O)N[C@@H](CCN)C(=O)N[C@@H](Cc3cccnc3)C(N)=O)NC1=O)C(=O)N[C@@H]([C@@H](C)O)C(=O)N[C@@H](C(C)C)C(=O)N[C@@H](Cc1c[nH]c3ccccc13)C(=O)N[C@@H](CCC(N)=O)C(=O)N2 [Compound 5, [{d}hLys](1c)(6c)^†TVWQE(6c)[Y(2-aminoethoxy)][2-Nal][2-Me-Leu]E(1c)[Dab][3-(3-Pyridyl)-Ala]-[NH2]] | 0.037 | 98 | –
CNC(=O)[C@H](Cc1cccnc1)NC(=O)[C@H](CCN)NC(=O)[C@@H]1CCCCNC(=O)[C@H]2CCC(=O)N[C@@H](Cc3c[nH]c4ccccc34)C(=O)N[C@@H](CCC(N)=O)C(=O)N[C@@H](CCC(=O)N2)C(=O)N[C@@H](Cc2ccc(OCCN)cc2)C(=O)N[C@@H](Cc2ccc3ccccc3c2)C(=O)N[C@@](C)(CC(C)C)C(=O)N1 [Compound 108, [{d}iso-Glu](1c)^‡(6c)^†WQE(6c)[Y(2-aminoethoxy)][2-Nal][2-Me-Leu]K(1c)[Dab][3-(3-Pyridyl)-Ala]-[NHMe]] (WQE[AEF][2Nal][αMeL]K[Dab][3Pal]-NHMe; linker N-3-7 via X8) | 16 | 101 | –
CC[C@H](C)[C@@H]1NC(=O)[C@@H]2CCCCNC(=O)CC[C@@H](C(=O)N[C@@H](CCN)C(=O)N[C@@H](Cc3cncnc3)C(=O)NC)NC(=O)[C@](C)(CC(C)C)NC(=O)[C@H](Cc3ccc4ccccc4c3)NC(=O)[C@H](Cc3ccc(OCCN)cc3)NC(=O)[C@H](CCC(=O)N2)NC(=O)[C@H](CCC(N)=O)NC(=O)[C@H](Cc2c[nH]c3ccccc23)NC(=O)[C@H](C(C)C)NC1=O [Compound 78, K(1c)(6c)^†IVWQE(6c)[Y(2-aminoethoxy)][2-Nal][2-Me-Leu]E(1c)[Dab][3-(3,5-Pyrimidyl)-Ala]-[NHMe]] | 3 | – | 100
CNC(=O)[C@H](Cc1cccnc1)NC(=O)[C@H](CCN)NC(=O)[C@@H]1CCC(=O)NCCCC[C@@H]2NC(=O)CC[C@H](NC(=O)[C@H](CCC(N)=O)NC(=O)[C@H](Cc3c[nH]c4ccccc34)NC(=O)CCNC2=O)C(=O)N[C@@H](CC2CC2)C(=O)N[C@@H](Cc2ccc3ccccc3c2)C(=O)N[C@@](C)(CC(C)C)C(=O)N1 [Compound 82, K(1c)(6c)^†[3-Aminopropanoyl]WQE(6c)[Cyclopropyl-Ala][2-Nal][2-Me-Leu]E(1c)[Dab][3-(3-Pyridyl)-Ala]-[NHMe]] | 3.7 | 101 | –
COc1ccc(C[C@@H]2NC(=O)[C@@H]3CCC(=O)N[C@@H](CCCCNC(=O)CC[C@@H](C(=O)N[C@@H](CCCCNC(=O)CCc4cccnc4)C(N)=O)NC(=O)[C@](C)(CC(C)C)NC(=O)[C@H](Cc4ccc5ccccc5c4)NC2=O)C(=O)N[C@@H]([C@@H](C)O)C(=O)N[C@@H](C(C)C)C(=O)N[C@@H](Cc2c[nH]c4ccccc24)C(=O)N[C@@H](CCC(N)=O)C(=O)N3)cc1 [Compound 52, K(1c)(6c)^†TVWQE(6c)[Y(Me)][2-Nal][2-Me-Leu]E(1c)[K(3-pyridylpropionyl)]-[NH2]] | 120 | 101 | –
CC(C)C[C@]1(C)NC(=O)[C@H](Cc2ccc3ccccc3c2)NC(=O)[C@H](Cc2ccc(OCCN)cc2)NC(=O)[C@@H]2CC(=O)N[C@H](CCCNC(=O)CCC[C@@H](C(=O)N[C@@H](CCN)C(=O)N[C@@H](Cc3cccnc3)C(N)=O)NC1=O)C(=O)N[C@@H]([C@@H](C)O)C(=O)N[C@@H](C(C)C)C(=O)N[C@@H](Cc1c[nH]c3ccccc13)C(=O)N[C@@H](CCC(N)=O)C(=O)N2 [Compound 8, [{d}Orn](1c)(6c)^†TVWQD(6c)[Y(2-aminoethoxy)][2-Nal][2-Me-Leu][hGlu](1c)[Dab][3-(3-Pyridyl)-Ala]-[NH2]] ([dOrn]TVWQD[AEF][2Nal][αMeL][Aad][Dab][3Pal]-NH2; lactam 1-10, N-6) | 0.52 | – | –
CNC(=O)[C@H](Cc1cccnc1)NC(=O)[C@H](CCN)NC(=O)[C@@H]1CCC(=O)NCC[C@@H]2NC(=O)CC[C@H](NC(=O)[C@H](CCC(N)=O)NC(=O)[C@H](Cc3c[nH]c4ccccc34)NC2=O)C(=O)N[C@@H](Cc2ccc(OCCN)cc2)C(=O)N[C@@H](Cc2ccc3ccccc3c2)C(=O)N[C@@](C)(CC(C)C)C(=O)N1 [Compound 94, [Dab](1c)(6c)^†WQE(6c)[Y(2-aminoethoxy)][2-Nal][2-Me-Leu]E(1c)[Dab][3-(3-Pyridyl)-Ala]-[NHMe]] | 3.7 | 99 | –
